From ChEMBL document CHEMBL1667742, “Angiotensin II receptor type 1 (AT1) selective nonpeptidic antagonists--a perspective” (Bioorg Med Chem, 2010)
Substitutions are numbered along the chain they refer to.

What was measured:
[1] = target: T1, Type-1 angiotensin II receptor (Homo sapiens, UniProt P30556); assay: Binding affinity to angiotensin AT1 receptor
T1 sequence (P30556 whole entry): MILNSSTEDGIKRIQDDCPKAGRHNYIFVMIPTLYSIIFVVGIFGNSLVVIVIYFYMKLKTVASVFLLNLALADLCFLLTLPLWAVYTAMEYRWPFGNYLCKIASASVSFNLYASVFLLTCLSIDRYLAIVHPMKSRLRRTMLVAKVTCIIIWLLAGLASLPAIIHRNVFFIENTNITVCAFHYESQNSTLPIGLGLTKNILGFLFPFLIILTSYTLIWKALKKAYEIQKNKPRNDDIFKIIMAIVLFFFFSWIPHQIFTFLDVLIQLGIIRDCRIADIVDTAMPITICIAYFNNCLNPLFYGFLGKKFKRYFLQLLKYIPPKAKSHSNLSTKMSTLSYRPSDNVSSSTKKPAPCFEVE

[2] = tested on: Rhesus monkey; assay: Antihypertensive activity in rhesus monkey assessed as inhibition of angiotensin 2-induced pressor response at 10 mg/kg, po after 4 to 24 hrs; format: functional; settings: Macaca mulatta
[3] = Oral bioavailability in rat; format: ADME, organism-based; settings: in vivo
[4] = tested on: Rattus norvegicus; assay: Ratio of compound ED50 to losartan ED50 for po dosed renal hypertensive rat model; format: functional
[5] = target: T2, Type-1 angiotensin II receptor (Homo sapiens) (UniProt P30556); assay: Ratio of compound Ki to losartan Ki for angiotensin AT1 receptor
T2 sequence (whole entry): T1 sequence (P30556 whole entry)

[6] = species: Rattus norvegicus; assay: Antihypertensive activity in spontaneous hypertensive rat model assessed as reduction of blood pressure; format: functional
[7] = target: T2, Type-1 angiotensin II receptor (Homo sapiens); assay: Antagonist activity at angiotensin AT1 receptor; format: functional
[8] = target: T3, Type-1 angiotensin II receptor (Cavia porcellus, UniProt Q9WV26); assay: Binding affinity to angiotensin AT1 receptor in guinea pig adrenal cortex membranes; format: cell membranes, Membrane
T3 sequence (Q9WV26 whole entry): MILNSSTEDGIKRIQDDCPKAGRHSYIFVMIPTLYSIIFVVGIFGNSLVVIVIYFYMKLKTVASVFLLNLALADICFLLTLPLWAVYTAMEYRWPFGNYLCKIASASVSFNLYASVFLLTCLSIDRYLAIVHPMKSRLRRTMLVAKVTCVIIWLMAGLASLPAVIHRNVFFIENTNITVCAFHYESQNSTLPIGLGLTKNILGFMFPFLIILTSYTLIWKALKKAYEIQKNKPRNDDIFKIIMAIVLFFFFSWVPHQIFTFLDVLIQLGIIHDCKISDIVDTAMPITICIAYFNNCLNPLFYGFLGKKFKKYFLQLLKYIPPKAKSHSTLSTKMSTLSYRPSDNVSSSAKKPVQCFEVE

[9] = target: T4, Type-1 angiotensin II receptor (Oryctolagus cuniculus, UniProt P34976); assay: Displacement of [125I]-Sar1Ile8-angiotensin 2 from angiotensin AT1 receptor in rabbit aortic membranes; format: cell membranes
T4 sequence (P34976 whole entry): T1 sequence (P30556 whole entry) with I2M, V49A, I254V, I270V, R272H, R311K, T349S, A353V

[10] = tested on: Rattus norvegicus; assay: Cardiotoxicity in left renal artery-ligated hypertensive rat model assessed as reduction of heart rate at 0.3 to 3 mg/kg, administered intra-arterially for 6 days; format: toxicity, organism-based; design: dose 0.3-3 mg/kg; scale not given: the % may be the effect or the level left; settings: in vivo, other, 144 h
[11] = target: T1, Type-1 angiotensin II receptor; assay: Displacement of [3H]-angiotensin 2 from angiotensin AT1 receptor
[12] = tested on: Rattus norvegicus; assay: Cardiotoxicity in left renal artery-ligated hypertensive rat model assessed as reduction of heart rate at 1 to 10 mg/kg, po for 6 days; format: toxicity, organism-based; design: dose 1-10 mg/kg, route oral; scale not given: the % may be the effect or the level left; settings: in vivo, 144 h
[13] = target: T4, Type-1 angiotensin II receptor; assay: Antagonist activity at angiotensin AT1 receptor in rabbit thoracic aortic rings; format: functional; settings: read-out: pA2 (converted)
[14] = tested on: Homo sapiens; assay: Metabolic stability in iv and po dosed human assessed as conversion of EXP3174; format: ADME, organism-based; settings: in vivo
[15] = tested on: Rattus norvegicus; assay: Antihypertensive activity in iv dosed conscious rat; format: functional
[16] = target: T4, Type-1 angiotensin II receptor; assay: Antagonist activity at angiotensin AT1 receptor in rabbit aortic strip assessed as inhibition of angiotensin 2-induced contractile response; format: functional; settings: read-out: pA2 (converted)
[17] = target: T4, Type-1 angiotensin II receptor; assay: Antagonist activity at angiotensin AT1 receptor in rabbit adrenal cortex assessed as inhibition of angiotensin 2-induced […] response; format: functional, tissue-based
[18] = Displacement of [125I]-angiotensin 2 from angiotensin AT1 receptor in rat liver membranes; format: cell membranes, Membrane
[19] = tested on: Rattus norvegicus; assay: Antihypertensive activity in iv dosed anesthetized ganglionic blocked rat model assessed as reduction of angiotensin 2-induced response; format: functional, organism-based
[20] = target: T5, Type-2 angiotensin II receptor (Homo sapiens) (UniProt P50052); assay: (§1) Binding affinity to angiotensin AT2 receptor; settings: concentration not given here
T5 sequence (whole entry): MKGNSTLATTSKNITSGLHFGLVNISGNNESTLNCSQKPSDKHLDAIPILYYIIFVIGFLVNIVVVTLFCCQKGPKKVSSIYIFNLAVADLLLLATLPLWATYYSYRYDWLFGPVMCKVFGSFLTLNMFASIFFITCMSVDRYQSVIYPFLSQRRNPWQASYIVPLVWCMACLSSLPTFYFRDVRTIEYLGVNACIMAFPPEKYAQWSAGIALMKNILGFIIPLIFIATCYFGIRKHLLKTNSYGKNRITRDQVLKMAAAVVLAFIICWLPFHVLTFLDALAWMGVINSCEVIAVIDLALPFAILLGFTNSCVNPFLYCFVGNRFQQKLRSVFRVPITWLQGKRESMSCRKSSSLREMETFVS

[21] = target: T6, Type-2 angiotensin II receptor (Homo sapiens, UniProt P50052); assay: as §1
T6 sequence (P50052 whole entry): T5 sequence (whole entry)

[22] = target: T1, Type-1 angiotensin II receptor; assay: Antagonist activity at angiotensin AT1 receptor in human PLC-PRF5 cells; format: functional, cell-based
[23] = target: T1, Type-1 angiotensin II receptor; assay: Displacement of [3H]-angiotensin 2 from angiotensin AT1 receptor in human PLC-PRF5 cells; format: cell-based
[24] = Binding affinity to angiotensin AT1 receptor in rat liver membranes; format: cell membranes, Membrane
[25] = target: T2, Type-1 angiotensin II receptor (Homo sapiens); assay: Ratio of compound IC50 to losartan IC50 for angiotensin AT1 receptor
[26] = Antagonist activity at angiotensin AT1 receptor in rat uterine membranes; format: functional, cell membranes
[27] = target: T4, Type-1 angiotensin II receptor; assay: Antagonist activity at angiotensin AT1 receptor in rabbit aorta assessed as reduction of angiotensin 2-induced contractile response; format: functional, tissue-based; settings: read-out: pA2 (converted)
[28] = tested on: Rattus norvegicus; assay: Antihypertensive activity in conscious normotensive rat assessed as inhibition of angiotensin 2-induced pressor response at 1 mg/kg, iv after 6 hrs; format: functional

CCCCc1nn(-c2ccccc2C(F)(F)F)c(=O)n1Cc1ccc(-c2ccccc2S(=O)(=O)NC(=O)c2ccccc2)cc1 [L-159913]
Ki [1]: 1.7 nM | inhibition in vivo at 10 mg/kg [2]: 76% | bioavailability [3]: 44%

CCCCC1=NC(Cl)=C(C(=O)O)C(C)N1Cc1ccc(-c2ccccc2-c2nn[nH]n2)cc1 (centres undefined)
Ratio ED50 [4]: 20 | Ratio Ki [5]: 10 | ED50 [6]: 0.08 µmol/kg | Kb [7]: 0.45 nM

Cc1cc(Sc2ccc(-c3ccccc3-c3nn[nH]n3)cc2)c2ccccc2n1
IC50 [8]: 370 nM

CCCCc1nn(CC(C)(C)C)c(=O)n1Cc1ccc(-c2ccccc2-c2nnn[nH]2)cc1
IC50 [9]: 1.2 nM

CCCCc1nc(Cl)c(C(=O)O)n1Cc1ccc2oc(-c3ccccc3-c3nn[nH]n3)c(Br)c2c1 [ZOLASARTAN]
Activity [10]: < 15% | Ki [11]: 2 nM | Activity [12]: < 15%

CCCCc1nc2cc(OC)cc(C(=O)O)c2n1Cc1ccc(N(CC)C(C(=O)O)c2ccccc2)cc1 (centres undefined)
Kb [13]: 5.01 nM

CCCCc1nc(Cl)c(CO)n1Cc1ccc(-c2ccccc2-c2nn[nH]n2)cc1 [LOSARTAN]
Stability [14]: 14%

CCc1cc(Oc2ccc(-c3ccccc3-c3nnn[nH]3)cc2)c2ncccc2n1
ED50 [15]: 0.86 mg/kg | IC50 [8]: 24 nM

CCOC(=O)/C=C1\N(Cc2ccc(-c3ccccc3-c3nn[nH]n3)cc2)C(=O)CC1(CC)CC
Kb [16]: 12.6 nM | IC50 [17]: 100 nM

CCCc1nc(-n2cccc2C(=O)C(F)(F)F)c(C(=O)O)n1Cc1ccc(-c2ccccc2-c2nn[nH]n2)cc1
IC50 [18]: 0.8 nM | IC50 [19]: 6.2 mg/kg

CCc1nc2c(C)cc(C)nc2n1Cc1ccc(-c2ccsc2-c2nn[nH]n2)cc1
inhibition [20]: 90% | IC50 [21]: 2.3 nM

CCCCN1CC2(CN1Cc1ccc(-c3ccccc3S(=O)(=O)NC(=O)c3ccccc3)cc1)C(=O)CCC2=O
IC50 [22]: 12 nM | Ki [23]: 10 nM

CCCCC1=NC2(CCCC2)C(=O)N1Cc1ccc(-c2ccccc2-c2nnn[nH]2)cc1 [IRBESARTAN]
IC50 [24]: 1.3 nM | Ratio IC50 [25]: 10

CCCCc1nn(CCCC)c(=O)n1Cc1ccc(-c2ccccc2-c2nn[nH]n2)cc1
IC50 [26]: 5.1 nM | Kb [27]: 1.38 nM

CCCCc1nn(-c2ccccc2C(F)(F)F)c(=O)n1Cc1ccc(-c2ccccc2-c2nn[nH]n2)cc1
inhibition in vivo at 1 mg/kg [28]: 70%
